According to patent publication US12514887B2, “Oncolytic tumor viruses and methods of use” (priority 2014, dated 2026):

What was measured:
[1] = tested on: HS578T subcutaneous xenografts; assay: HS578T subcutaneous xenografts, AdSyn-CO335 study; conditions: 28 days, 8 mg/kg rapamycin alone, no virus infection
Description: Oncolytic activity of AdSyn-CO335 was tested in vitro and in vivo. HS578T cells were infected with a serial dilution of AdSyn-CO335. At 24, 48, 72 and 96 hours after infection, fresh rapamycin or AP21967 was added to 50 nM. The metabolic activity was quantified by WST-1 assay, and was normalized to uninfected cells with a matching drug treatment. […] To evaluate AdSyn-CO335 in vivo, HS578T subcutaneous xenografts were established in mice. […]
Two perpendicular tumor diameters (l and w) were measured weekly to follow tumor progression. Tumor volumes were calculated by use of the modified ellipsoid formula where vol=½ (l*w^2) (Euhus et al., J Surg Oncol 31(4):229-2341986; Tomayko et al., Cancer Chemother Pharmacol 24(3):148-154, 1989).
On days 0, 3, and 6, mice were injected intratumorally with 2×10^8 PFU of adenovirus diluted in 50 μl PBS. […] Body weight was monitored for toxicity, and tumor sizes were measured while blinded to treatment groups. […]

mTOR = target: T1, mTOR (Homo sapiens, UniProt P42345+P62942); assay: p70 S6K phosphorylation immunoblot; format: cell-based; conditions: targeting concentrations
T1 construct: endogenous in cells

Row | SMILES | mean tumor volume [1] | phosphorylation of p70 S6K (mTOR inhibition) (mTOR)
1 | CO[C@H]1C[C@@H]2CC[C@@H](C)[C@@](O)(O2)C(=O)C(=O)N2CCCC[C@H]2C(=O)O[C@H]([C@H](C)C[C@@H]2CC[C@@H](O)[C@H](OC)C2)CC(=O)[C@H](C)/C=C(\C)[C@@H](O)[C@@H](OC)C(=O)[C@H](C)C[C@H](C)/C=C/C=C/C=C/1C [rapamycin, Rapamycin] | 229±49 mm^3 | 
2 | CO[C@H]1[C@@H](O)[C@H](C)C[C@H](C)/C=C/C=C/C=C(\C)[C@@H](c2c[nH]c3c(C)cccc23)C[C@@H]2CC[C@@H](C)[C@@](O)(O2)C(=O)C(=O)N2CCCC[C@H]2C(=O)O[C@H]([C@H](C)C[C@@H]2CC[C@@H](O)[C@H](OC)C2)C[C@H](O)[C@H](C)/C=C(\C)[C@H]1O [AP21967] |  | does not inhibit mTOR at targeting concentrations
